Assay results from the supplement of paper PMC4862054.

The compounds below were run on CAL-120 (assay: drug sensitivity score (DSS), CellTiter-Glo (DSS (AUC-based score)); higher = stronger drug effect (viability inhibition or cytotoxicity); extreme values may be limits of the assay). Conditions: incubation time: 72 h.
Summary of the method: (§1)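 After 72 h of incubation in 384-well plates with compound at 5 concentrations (10-fold steps, 10,000-fold range set per compound), breast cancer cell lines seeded in 20 µl suspension were read first for CellTox Green fluorescence at 485/520 nm. CellTiter-Glo luminescence was measured next, after 10 min at room temperature. Normalisation on each plate used 0.1 % DMSO and a positive kill control, and the drug sensitivity score was computed from the area under the fitted dose-response curve.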

SMILES | drug sensitivity score
Cc1c(C(=O)Nc2ccc(N3C[C@@H](C)O[C@@H](C)C3)nc2)cccc1-c1ccc(OC(F)(F)F)cc1 [Erismodegib] | 0
CC(C)C(=O)Nc1ccc([N+](=O)[O-])c(C(F)(F)F)c1 [Flutamide] | 0
COc1cc2c(Oc3ccc(NC(=O)C4(C(=O)Nc5ccc(F)cc5)CC4)cc3F)ccnc2cc1OCCCN1CCOCC1 [Foretinib] | 2.45
COc1cc(Nc2ncc(F)c(Nc3ccc4c(n3)N(COP(=O)(O)O)C(=O)C(C)(C)O4)n2)cc(OC)c1OC [Fostamatinib] | 5.15
CC(C)NC[C@@H](C(=O)N1CCN(c2ncnc3c2[C@H](C)C[C@H]3O)CC1)c1ccc(Cl)cc1 [GDC-0068] | 3.43
CCCc1cc(C)[nH]c(=O)c1CNC(=O)c1cc(-c2ccnc(N3CCN(C)CC3)c2)cc2c1cnn2C(C)C [GSK343] | 0
NC(=O)NO [Hydroxyurea] | 0

The compounds below were run on CAL-85-1 in the same assay as above. Conditions: incubation time: 72 h.
Summary of the method: as §1

SMILES | drug sensitivity score
CCCCCOC(=O)Nc1nc(=O)n([C@@H]2O[C@H](C)[C@@H](O)[C@H]2O)cc1F [Capecitabine] | 0
CC(C)C[C@H](NC(=O)[C@H](CCc1ccccc1)NC(=O)CN1CCOCC1)C(=O)N[C@@H](Cc1ccccc1)C(=O)N[C@@H](CC(C)C)C(=O)[C@@]1(C)CO1 [Carfilzomib] | 25.2
Nc1nc(Cl)nc2c1ncn2[C@@H]1O[C@H](CO)[C@@H](O)[C@@H]1F [Clofarabine] | 10.6
CCN(CC)CCOc1ccc(C(=C(Cl)c2ccccc2)c2ccccc2)cc1 [Clomifene] | 3.91
C[C@@H]1C[C@H]2[C@@H]3CCC4=CC(=O)C=C[C@]4(C)[C@@]3(F)[C@@H](O)C[C@]2(C)[C@@]1(O)C(=O)CO [Dexamethasone] | 0
CCc1cnn2c(NCc3ccc[n+]([O-])c3)cc(N3CCCC[C@H]3CCO)nc12 [Dinaciclib] | 25.4
Cc1c(C(=O)Nc2ccc(N3C[C@@H](C)O[C@@H](C)C3)nc2)cccc1-c1ccc(OC(F)(F)F)cc1 [Erismodegib] | 0
CC(C)C(=O)Nc1ccc([N+](=O)[O-])c(C(F)(F)F)c1 [Flutamide] | 0
COc1cc2c(Oc3ccc(NC(=O)C4(C(=O)Nc5ccc(F)cc5)CC4)cc3F)ccnc2cc1OCCCN1CCOCC1 [Foretinib] | 0
COc1cc(Nc2ncc(F)c(Nc3ccc4c(n3)N(COP(=O)(O)O)C(=O)C(C)(C)O4)n2)cc(OC)c1OC [Fostamatinib] | 2.69
CC(C)NC[C@@H](C(=O)N1CCN(c2ncnc3c2[C@H](C)C[C@H]3O)CC1)c1ccc(Cl)cc1 [GDC-0068] | 2.16
CCCc1cc(C)[nH]c(=O)c1CNC(=O)c1cc(-c2ccnc(N3CCN(C)CC3)c2)cc2c1cnn2C(C)C [GSK343] | 1.9
NC(=O)NO [Hydroxyurea] | 0

What follows are compounds tested on BT-474 in the same assay as above. Conditions: incubation time: 72 h.
Summary of the method: as §1

SMILES | drug sensitivity score
CCCCCOC(=O)Nc1nc(=O)n([C@@H]2O[C@H](C)[C@@H](O)[C@H]2O)cc1F [Capecitabine] | 0
CC(C)C[C@H](NC(=O)[C@H](CCc1ccccc1)NC(=O)CN1CCOCC1)C(=O)N[C@@H](Cc1ccccc1)C(=O)N[C@@H](CC(C)C)C(=O)[C@@]1(C)CO1 [Carfilzomib] | 21.8
Nc1nc(Cl)nc2c1ncn2[C@@H]1O[C@H](CO)[C@@H](O)[C@@H]1F [Clofarabine] | 5.27
CCN(CC)CCOc1ccc(C(=C(Cl)c2ccccc2)c2ccccc2)cc1 [Clomifene] | 4.51
C[C@@H]1C[C@H]2[C@@H]3CCC4=CC(=O)C=C[C@]4(C)[C@@]3(F)[C@@H](O)C[C@]2(C)[C@@]1(O)C(=O)CO [Dexamethasone] | 0
CCc1cnn2c(NCc3ccc[n+]([O-])c3)cc(N3CCCC[C@H]3CCO)nc12 [Dinaciclib] | 18.3
Cc1c(C(=O)Nc2ccc(N3C[C@@H](C)O[C@@H](C)C3)nc2)cccc1-c1ccc(OC(F)(F)F)cc1 [Erismodegib] | 3.21
CC(C)C(=O)Nc1ccc([N+](=O)[O-])c(C(F)(F)F)c1 [Flutamide] | 0
COc1cc2c(Oc3ccc(NC(=O)C4(C(=O)Nc5ccc(F)cc5)CC4)cc3F)ccnc2cc1OCCCN1CCOCC1 [Foretinib] | 2.19
COc1cc(Nc2ncc(F)c(Nc3ccc4c(n3)N(COP(=O)(O)O)C(=O)C(C)(C)O4)n2)cc(OC)c1OC [Fostamatinib] | 4.12
CC(C)NC[C@@H](C(=O)N1CCN(c2ncnc3c2[C@H](C)C[C@H]3O)CC1)c1ccc(Cl)cc1 [GDC-0068] | 0.706
CCCc1cc(C)[nH]c(=O)c1CNC(=O)c1cc(-c2ccnc(N3CCN(C)CC3)c2)cc2c1cnn2C(C)C [GSK343] | 3.79
NC(=O)NO [Hydroxyurea] | 0

Each compound was assayed on MCF-10A in the same assay as above. Conditions: incubation time: 72 h.
Summary of the method: as §1

SMILES | drug sensitivity score
CCCCCOC(=O)Nc1nc(=O)n([C@@H]2O[C@H](C)[C@@H](O)[C@H]2O)cc1F [Capecitabine] | 0
CC(C)C[C@H](NC(=O)[C@H](CCc1ccccc1)NC(=O)CN1CCOCC1)C(=O)N[C@@H](Cc1ccccc1)C(=O)N[C@@H](CC(C)C)C(=O)[C@@]1(C)CO1 [Carfilzomib] | 12.2
Nc1nc(Cl)nc2c1ncn2[C@@H]1O[C@H](CO)[C@@H](O)[C@@H]1F [Clofarabine] | 5.94
CCN(CC)CCOc1ccc(C(=C(Cl)c2ccccc2)c2ccccc2)cc1 [Clomifene] | 1.05
C[C@@H]1C[C@H]2[C@@H]3CCC4=CC(=O)C=C[C@]4(C)[C@@]3(F)[C@@H](O)C[C@]2(C)[C@@]1(O)C(=O)CO [Dexamethasone] | 0
CCc1cnn2c(NCc3ccc[n+]([O-])c3)cc(N3CCCC[C@H]3CCO)nc12 [Dinaciclib] | 12.9
Cc1c(C(=O)Nc2ccc(N3C[C@@H](C)O[C@@H](C)C3)nc2)cccc1-c1ccc(OC(F)(F)F)cc1 [Erismodegib] | 0
CC(C)C(=O)Nc1ccc([N+](=O)[O-])c(C(F)(F)F)c1 [Flutamide] | 0
COc1cc2c(Oc3ccc(NC(=O)C4(C(=O)Nc5ccc(F)cc5)CC4)cc3F)ccnc2cc1OCCCN1CCOCC1 [Foretinib] | 1.41
COc1cc(Nc2ncc(F)c(Nc3ccc4c(n3)N(COP(=O)(O)O)C(=O)C(C)(C)O4)n2)cc(OC)c1OC [Fostamatinib] | 7.38
CC(C)NC[C@@H](C(=O)N1CCN(c2ncnc3c2[C@H](C)C[C@H]3O)CC1)c1ccc(Cl)cc1 [GDC-0068] | 3.41
CCCc1cc(C)[nH]c(=O)c1CNC(=O)c1cc(-c2ccnc(N3CCN(C)CC3)c2)cc2c1cnn2C(C)C [GSK343] | 0
NC(=O)NO [Hydroxyurea] | 0

These compounds were tested on HCC1937 in the same assay as above. Conditions: incubation time: 72 h.
Summary of the method: as §1

SMILES | drug sensitivity score
CCCCCOC(=O)Nc1nc(=O)n([C@@H]2O[C@H](C)[C@@H](O)[C@H]2O)cc1F [Capecitabine] | 0
CC(C)C[C@H](NC(=O)[C@H](CCc1ccccc1)NC(=O)CN1CCOCC1)C(=O)N[C@@H](Cc1ccccc1)C(=O)N[C@@H](CC(C)C)C(=O)[C@@]1(C)CO1 [Carfilzomib] | 20.6
Nc1nc(Cl)nc2c1ncn2[C@@H]1O[C@H](CO)[C@@H](O)[C@@H]1F [Clofarabine] | 0
